Measurements from PubChem BioAssay (NCI).
Several values for one entry are separate records, joined by “and”; a condition that tells them apart may be missing. Equal values may be shown once.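 Interpolation was linear, between the two tested concentrations surrounding the appropriate level; five concentrations were tested over 48 hours in 96-well plates. GI50 marks 50% less growth. The concentration for full growth arrest is given as TGI.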

Experiments:
Assay in all cases: NCI anticancer screen, dose series, 48 h
[1] = system: HOP-62 NSCLC
[2] = system: K-562 leukemia
[3] = system: MCF7 breast
[4] = system: HT29 colon
[5] = system: OVCAR-5 ovarian
[6] = system: CCRF-CEM leukemia
[7] = system: SR leukemia
[8] = system: COLO 205 colon
[9] = system: T-47D breast
[10] = system: A498 renal

| Structure (SMILES) | TGI [1] [µM] | TGI [2] [µM] | TGI [3] [µM] | TGI [4] [µM] | TGI [5] [µM] | TGI [6] | TGI [7] [µM] | TGI [8] [µM] | TGI [9] [µM] | TGI [10] [µM] | GI50 [1] [µM] | GI50 [2] [µM] | GI50 [3] [µM] | GI50 [4] [µM] | GI50 [5] [µM] | GI50 [7] [µM] | GI50 [8] [µM] | GI50 [9] [µM] | GI50 [10] |
| --- | --- | --- | --- | --- | --- | --- | --- | --- | --- | --- | --- | --- | --- | --- | --- | --- | --- | --- | --- |
| O=C1C(=Cc2ccc(Cl)c(Cl)c2)C([O-])=C([P+](c2ccccc2)(c2ccccc2)c2ccccc2)C([O-])=C1[P+](c1ccccc1)(c1ccccc1)c1ccccc1 | 7.8 | 8.33 | 11.2 | 4.05 | 12.6 | 5.6 µM | 11.6 | 3.28 | 15.7 | 31.9 |  |  |  |  |  |  |  |  |  |
| CN(C)CCCNCc1cccc2ccccc12 | > 100 | > 100 | > 100 | > 100 | > 100 | > 100 µM | 68.5 | > 100 | > 100 | > 100 |  |  |  |  |  |  |  |  |  |
| C=CC(C)(C)C(=C)C(=O)Nc1ccccc1I | > 100 | > 100 | > 100 | > 100 | > 100 | > 100 µM | > 100 | > 100 | > 100 | > 100 |  |  |  |  |  |  |  |  |  |
| CC(C)(C)CC(C)(C)c1ccc(O)c(C[N+](C)(C)[O-])c1 | > 100 | > 100 | > 100 | > 100 | > 100 | > 100 µM | > 100 | > 100 | > 100 | > 100 |  |  |  |  |  |  |  |  |  |
| OC1C[C@H](c2ccccc2)C2(C(O)c3ccccc3C2O)[C@@H](c2ccccc2)C1 (some centres not stated) | > 100 | > 100 | > 100 | > 100 | > 100 | > 100 µM | 68.1 | > 100 | > 100 | > 100 |  |  |  |  |  |  |  |  |  |
| CN(C)/N=N/c1nc[nH]c1C(N)=O |  |  | > 1000 | > 1000 | > 1000 | 90.1 µM and > 731 µM | > 1000 | > 1000 | > 464 | > 875 | 43.8 | 39 | 154 | 607 | > 788 | 64.4 | 139 | 77.3 | 72.4 µM and > 133 µM |
| Cc1ccc(NC(=O)CSC(N)=O)cc1C | > 100 | > 100 | > 100 | > 100 | > 100 | > 100 µM | > 100 | > 100 | > 100 | > 100 |  |  |  |  |  |  |  |  |  |
| CN(Cc1cc(Cl)c(Cl)cc1NC(=O)CN)[C@H]1CCCC[C@@H]1N1CCCC1 | > 100 | 35.9 | > 100 | 47.9 | > 100 | > 100 µM | 49.9 | 33.9 | > 100 | 41.5 |  |  |  |  |  |  |  |  |  |
| Cc1c(C(=O)O)n2cnnc2c2ccccc12 | > 100 | > 100 | > 100 | > 100 | > 100 | > 100 µM | > 100 | > 100 | > 100 | > 100 |  |  |  |  |  |  |  |  |  |
| COc1ccc(Nc2nc(N)c(C(=O)c3cccs3)s2)cc1 | > 67.7 | > 100 | 24.9 | > 41.4 | > 79.7 | 12.8 µM | 5.88 | 21.6 | > 64.1 | 40.5 |  |  |  |  |  |  |  |  |  |
| CCOC(=O)N1CCC(=C2c3ccc(Cl)cc3CCc3cccnc32)CC1 | 36.3 | 49.7 | 23.8 | 16.9 | 37.9 | > 100 µM | 14.2 | 21.6 | 35 | 8.12 |  |  |  |  |  |  |  |  |  |
| Cc1sc2nc3n(c(=O)c2c1C)N=CN(c1ccc(F)cc1)C3 | > 100 | > 100 | > 100 | > 100 | > 100 | > 100 µM | > 100 | > 100 | > 100 | > 100 |  |  |  |  |  |  |  |  |  |
| S=c1[nH]c2ccc(I)cc2c(=S)n1Cc1ccccc1 | 22.8 | 14.6 | > 100 | 38.9 | 43.9 | 6.06 µM | 14.9 | 25.2 | 5.5 | 55.4 |  |  |  |  |  |  |  |  |  |
